In the supplement of paper PMC10307832:

Experiments:
Assay in all cases: relative viability (nuclei count vs DMSO), 5 days (fraction); higher = more cells survive
Ponatinib + Vorinostat = compound: Cc1ccc(C(=O)Nc2ccc(CN3CCN(C)CC3)c(C(F)(F)F)c2)cc1C#Cc1cnc2cccnn12 [Ponatinib] + O=C(CCCCCCC(=O)Nc1ccccc1)NO [Vorinostat] (partner 1 µM)
Summary of the method: (§1)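 After 5 days of treatment, lung cancer cells in 1536-well plates were fixed and stained in a single step (final 0.05% Triton X-100, 1% formaldehyde, 1 ug/ml Hoechst) and their nuclei counted on 4× images. Treatment had been applied by pin tool the day after seeding as one drug alone or as a fixed anchor-drug dose with five library-drug doses (not always all listed) in √10 steps. Relative viability is the nuclei count of treated wells divided by that of vehicle wells, and values are medians of duplicate plates.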

Ponatinib + Decitabine = compound: Cc1ccc(C(=O)Nc2ccc(CN3CCN(C)CC3)c(C(F)(F)F)c2)cc1C#Cc1cnc2cccnn12 [Ponatinib] + Nc1ncn([C@H]2C[C@H](O)[C@@H](CO)O2)c(=O)n1 [Decitabine] (partner 2 µM)
Summary of the method: as §1

Ponatinib + Foretinib = compound: Cc1ccc(C(=O)Nc2ccc(CN3CCN(C)CC3)c(C(F)(F)F)c2)cc1C#Cc1cnc2cccnn12 [Ponatinib] + COc1cc2c(Oc3ccc(NC(=O)C4(C(=O)Nc5ccc(F)cc5)CC4)cc3F)ccnc2cc1OCCCN1CCOCC1 [Foretinib] (partner 0.25 µM)
Summary of the method: as §1

Pazopanib + Navitoclax = compound: Cc1ccc(Nc2nccc(N(C)c3ccc4c(C)n(C)nc4c3)n2)cc1S(N)(=O)=O [Pazopanib] + CC1(C)CCC(c2ccc(Cl)cc2)=C(CN2CCN(c3ccc(C(=O)NS(=O)(=O)c4ccc(N[C@H](CCN5CCOCC5)CSc5ccccc5)c(S(=O)(=O)C(F)(F)F)c4)cc3)CC2)C1 [Navitoclax] (partner 0.5 µM)
Summary of the method: as §1

Cell Line | relative viability (Ponatinib + Vorinostat; first compound 0.002 µM) | relative viability (Ponatinib + Vorinostat; first compound 0.006325 µM) | relative viability (Ponatinib + Vorinostat; first compound 0.06325 µM) | relative viability (Ponatinib + Vorinostat; first compound 0.2 µM) | relative viability (Ponatinib + Decitabine; first compound 0.002 µM) | relative viability (Ponatinib + Decitabine; first compound 0.006325 µM) | relative viability (Ponatinib + Decitabine; first compound 0.06325 µM) | relative viability (Ponatinib + Decitabine; first compound 0.2 µM) | relative viability (Ponatinib + Foretinib; first compound 0.002 µM) | relative viability (Ponatinib + Foretinib; first compound 0.006325 µM) | relative viability (Ponatinib + Foretinib; first compound 0.06325 µM) | relative viability (Ponatinib + Foretinib; first compound 0.2 µM) | relative viability (Pazopanib + Navitoclax; first compound 0.01 µM) | relative viability (Pazopanib + Navitoclax; first compound 0.03162 µM) | relative viability (Pazopanib + Navitoclax; first compound 0.1 µM) | relative viability (Pazopanib + Navitoclax; first compound 0.3162 µM) | relative viability (Pazopanib + Navitoclax; first compound 1 µM)
HCC-827 | 0.736 | 0.78 | 0.821 | 0.801 | 0.327 | 0.385 | 0.338 | 0.326 | 0.971 | 1.02 | 0.997 | 1 | 1.06 | 1.02 | 1.11 | 1.07 | 0.98
HOP-62 | 0.516 | 0.509 | 0.682 | 0.597 | 0.213 | 0.168 | 0.21 | 0.183 | 0.999 | 1 | 1 | 0.914 | 1.13 | 1.08 | 1.01 | 1.03 | 0.944
IA-LM | 0.913 | 0.875 | 0.861 | 0.783 | – | – | – | – | 1.06 | 1.1 | 1.01 | 1.06 | 0.815 | 0.782 | 0.778 | 0.792 | 0.625
LC-2-ad | 0.653 | 0.667 | 0.626 | 0.591 | 0.738 | 0.684 | 0.696 | 0.582 | 0.915 | 0.859 | 0.966 | 0.842 | 0.411 | 0.48 | 0.588 | 0.485 | 0.335
LCLC-97TM1 | 0.806 | 0.748 | 0.665 | 0.535 | 0.205 | 0.242 | 0.214 | 0.248 | 0.915 | 0.967 | 0.944 | 0.675 | – | 0.365 | 0.427 | 0.547 | 0.655
LCLC-103H | 0.701 | 0.821 | 0.848 | 0.765 | 0.713 | 0.693 | 0.759 | 0.722 | 0.745 | 0.755 | 0.775 | 0.688 | – | – | – | – | –
LK-2 | 0.261 | 0.284 | 0.341 | 0.345 | 0.301 | 0.312 | 0.273 | 0.274 | – | 1.07 | 0.687 | 0.739 | 0.67 | 0.925 | 0.863 | 0.788 | 0.821
LOU-NH91 | 0.889 | 0.988 | 1.01 | 0.873 | 0.778 | 0.788 | 0.868 | 0.766 | 0.929 | 0.98 | 0.996 | 0.931 | 0.718 | 0.701 | 0.732 | 0.843 | 0.766
LU99A | 0.439 | 0.519 | 0.535 | 0.611 | 0.803 | 0.968 | 0.992 | 0.789 | 0.781 | 0.928 | 0.876 | 0.774 | 0.697 | 0.819 | 0.769 | 0.773 | 0.843
LXF-289 | 0.646 | 0.746 | 0.732 | 0.793 | 0.388 | 0.359 | 0.36 | 0.379 | 0.92 | 0.952 | 0.96 | 0.943 | 0.994 | 1.03 | 0.95 | 0.934 | 0.991
